Values quoted from earlier work, collected in patent US4771122A, “Novel cyclosporins” (Sandoz Ltd., priority 1985, dated 1988).

Details: reported in literature

Question: For [(D)Pro]^3 -Cyclosporine, which immunosuppressive activity is on record?
Answer: substantially lacking in immunosuppressive activity
